Test results: US11278525B1, “Further molecules, compositions and methods for modulation of SIRT6” (SirTLab Corporation, priority 2017, dated 2022)

Biological target: SIRT6 (Homo sapiens, UniProt Q8N6T7)
Experiment: SIRT6 enzymatic activity assay with fluorophore (AMC)-labeled Lysin-myristoylated histone H3 peptide (de-myristoylation, trypsin release)
Format: biochemical
Parameters: six-histidine tag; made in house; host or cells: Escherichia coli BL21
Conditions: for % activity 20 uM: compound 20 uM; for % activity 20 uM / % activity Max. conc. 100 uM: percentage of signal increase relative to control wells, Tables 1-2; for % activity Max. conc. 100 uM: compound 100 uM; for % Activity: amount tested 20 uM, Example 5, Table 9
Description: Human recombinant SIRT6 (sequence identifier: CAG33481.1; GI:4814651) was expressed in large scale in Escherichia coli strain BL21 as a six-histidine-tagged protein, after transformation of the expression plasmid pET28-SIRT6. The SIRT6 enzyme was purified from the bacteria culture broth in a two-step strategy. The first purification step was carried out by cation exchange chromatography on a HiTrap CM-Sepharose column (GE Healthcare) using an FPLC system. The second purification step was performed by immobilized metal ion affinity chromatography (IMAC) using a cobalt affinity column (Clontech).
The enzymatic activity assay is carried out in 96 or 384-well microplates using the purified recombinant SIRT6 and a fluorophore-labeled peptide substrate: 7-amino-4-methylcoumarin (AMC) that is quenched through conjugation to the C-terminal end of a Lysin-myristoylated histone H3 peptide. The activity assay procedure requires two steps, both performed in the same microplate. In the first step, the substrate is incubated with the purified SIRT6 protein along with the co-substrate nicotinamide adenine dinucleotide (NAD+). Upon de-myristoylation, the liberated ε-amino group of the lysine becomes a trypsin substrate. Treatment with trypsin in the second step releases the fluorophore resulting in an increase in fluorescence. Fluorescence intensity is measured using a fluorescent plate reader (excitation and emission at 370 nm and 450 nm, respectively). The fluorescence signal is directly proportional to SIRT6 enzymatic activity.
In the primary screening, compounds from a library (ChemDiv Inc.) were tested at a single concentration of 20 micromolar for their potential to modulate SIRT6 enzymatic activity. The assay was carried out in 384-well black well plates and all liquid handling was done using a robotic liquid handler. Purified recombinant SIRT6 (1 micromolar) was pre-incubated with each compound (or DMSO in control wells) for 15 minutes at room temperature. The first stage of the assay was initiated by adding a ‘substrate solution’ containing the myristoylated histone H3 peptide and NAD+(for final concentrations of 25 micromolar and 20 micromolar, respectively). After one hour incubation at 37° C., a Trypsin solution (6 mg/mL) was added for 30 minutes at room temperature. Fluorescence intensity was measured using a fluorescent plate reader (Tecan) with excitation at 370 nm and emission at 450 nm. The effect of each tested compound was evaluated by the change in the fluorescence intensity compared to control wells. […] To validate the primary screening results, each of the primary “hits” was re-tested, first at concentration of 20 micromolar in duplicates and later at a serial dilution ranging from 100 to 0.2 micromolar in triplicates.
Results of Assay—The results of the assay are given below in Tables 1-3.
Additional molecules were tested according to the methods and materials of Example 1. The amount tested was 20 uM for each molecule.

Chain of SIRT6 (Q8N6T7 whole entry): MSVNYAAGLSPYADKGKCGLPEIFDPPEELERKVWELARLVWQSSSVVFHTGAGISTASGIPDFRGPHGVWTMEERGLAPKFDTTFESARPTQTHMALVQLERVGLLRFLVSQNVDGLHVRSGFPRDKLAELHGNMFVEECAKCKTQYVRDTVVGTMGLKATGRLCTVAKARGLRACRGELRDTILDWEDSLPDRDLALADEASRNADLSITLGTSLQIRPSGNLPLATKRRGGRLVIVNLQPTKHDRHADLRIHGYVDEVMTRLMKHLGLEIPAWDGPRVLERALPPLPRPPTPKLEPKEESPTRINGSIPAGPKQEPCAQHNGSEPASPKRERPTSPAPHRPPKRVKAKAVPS

Row | SMILES | % activity 20 uM [%] | % activity Max. conc. 100 uM [%] | % Activity [%]
1 | C=C(Cn1c(C)cc(C)c(C2=NC(c3ccccc3)=NC2)c1=O)NC1CCCCC1 [G744-0080] | 53 | 221 | 
2 | C=C(Nc1cc(C)cc(C)c1)Nc1nnc(SCC2=CC(=C)N3C=C(C)C=CC3=N2)s1 [G755-0539] | 34 | 87 | 
3 | Cc1cc(C)c2sc(N(Cc3cccnc3)C(=O)CCS(=O)(=O)c3ccccc3)nc2c1 [G856-7064] |  |  | 61
4 | C=C(Oc1ccc2cnccc2c1)c1sc2ccccc2c1N [G891-0058] | 154 | 324 | 
5 | C=C1Cc2c(cccc2CC)C=C1c1csc(NC(=O)CCC(=O)NCCCN2CCC(C)CC2)n1 [K232-1782] | 42 | 35 | 
6 | CCOC(=O)C1CCCN(S(=O)(=O)c2ccc(-c3ccc(N4CCOCC4)nn3)s2)C1 (stereo not shown) [K906-5001] | 52 | 52 | 
7 | CCOc1ccc(NC(=O)c2sc3nc(C)nc(N(C)c4ccc(C(C)C)cc4)c3c2C)cc1 [K937-0320] | 32 | 54 | 
8 | CCC(=O)Nc1ccc(-c2cc(C(=O)NCCCN3CCCCCC3)c3ccccc3n2)cc1 [L036-0162] | 62 | 92 | 
9 | CCC(=O)Nc1ccc(-c2cc(C(=O)NCCCN3CCCCC3C)c3ccccc3n2)cc1 (stereo not shown) [L036-0163] |  | 110 | 
10 | CCC(=O)Nc1ccc(-c2cc(C(=O)NCCCN3CCCC(C)C3)c3ccccc3n2)cc1 (stereo not shown) [L036-0174] | 61 | 87 | 
11 | CC(=O)Nc1ccc(-c2cc(C(=O)NCCN3CCN(C)CC3)c3cc(C)ccc3n2)cc1 [L036-2289] | 96 | 119 | 
12 | CCCNc1nc2ccccc2nc1S(=O)(=O)Cc1ccc(Cl)cc1 [L103-0652] | 34 | 42 | 
13 | CCOCCCNc1nc2ccccc2nc1S(=O)(=O)Cc1ccc(Cl)cc1 [L103-0696] | 91 | 159 | 
14 | CC(C)Cn1c(=O)c(-c2ccc(C(=O)N3CCN(c4ccccc4)CC3)cc2)nc2ccccc21 [M049-1557] | 51 | 56 | 
15 | CCCNC(=O)c1ccc(-c2ccc(N3CCCCC3)nc2)cc1 [M715-0111] | 63 | 50 | 
16 | CN(C)C(=O)c1ccc(-c2ccc(N3CCCCC3)nc2)cc1 [M715-0112] | 40 | 54 | 
17 | O=C(c1ccc(-c2ccc(N3CCCCC3)nc2)cc1)N1CCCC1 [M715-0156] |  | 75 | 
18 | O=C(Nc1ccc2nncn2c1)c1cccc(Cl)c1 [M723-0069] |  | 51 | 
19 | CC(C)(C)c1ccc(C(=O)Nc2ccc3nnc(C4CCC4)n3c2)cc1 [M723-1403] |  | 87 | 
20 | O=C(Nc1ccc2nnc(C3CCC3)n2c1)C1CC1 [M723-1459] |  | 142 | 
21 | Cc1nc(Cc2ccc(F)cc2)sc1C(=O)Nc1ccc(F)cc1F [M830-6517] | 36 | 22 | 
22 | Cc1ccc(Nc2nc(C)c(C(=O)Nc3cccc(C(C)C)c3)s2)cc1 [M830-6572] |  | 11 | 

Row | SMILES | % activity 20 uM [%] | % activity Max. conc. 100 uM [%] | % Activity [%]
23 | Cc1ccccc1C1N=C2C=NC=CN2C1NCCC(=O)NCc1cccs1 (stereo not shown) [P349-2111] |  |  | 84
24 | COc1cc(NC(=O)c2csc(-c3cn(C)c4ncccc34)n2)cc(OC)c1 [P613-0273] |  | 37 | 
25 | CCCC1(CO)CCCN1C(=O)c1ccc2cc[nH]c2c1 (stereo not shown) [P933-1294] |  | 53 | 
26 | N#Cc1cccc(-c2cn3c(n2)N(C(=O)c2ccncc2)CCC3)c1 [P950-0537] |  | 45 | 
27 | Cc1noc(-c2cccc(OC3CN(C(=O)c4cccc5[nH]ccc45)C3)c2)n1 [S051-0094] |  | 47 | 
28 | CCNC(=O)N1CCc2c(sc3ncnc(NCC)c23)C1 [S324-0342] |  |  | 30
29 | CNC(=O)N1CCc2c(sc3ncnc(NCCCOC)c23)C1 [S324-0365] |  |  | 60
30 | CN1CCN(C(=O)C2CCN(c3nc4ccc(-c5ccccc5)nc4s3)CC2)CC1 [T387-0661] |  |  | 67
31 | CN(C)CCCNC(=O)C1CCN(c2nc3ccc(-c4ccccc4)nc3s2)CC1 [T387-0668] |  |  | 51
32 | CCN1CCN(C(=O)C2CCN(c3nc4ccc(-c5ccccc5)nc4s3)CC2)CC1 [T387-0670] |  |  | 69
33 | CN1CCC(NC(=O)C2CCN(c3nc4ccc(-c5ccccc5)nc4s3)CC2)CC1 [T387-0726] |  |  | 22
34 | COCCCNC(=O)C1CCN(c2nc3ccc(-c4cncnc4)nc3s2)CC1 [T387-0917] |  |  | 65
35 | CN(C)CCNC(=O)C1CCN(c2nc3ccc(-c4cncnc4)nc3s2)CC1 [T387-0941] |  |  | 49
36 | O=C(C1CCN(c2nc3ccc(-c4cncnc4)nc3s2)CC1)N1CCCC1 [T387-0947] |  |  | 40
37 | CN(C)C(=O)C1CCN(c2nc3ccc(-c4cncnc4)nc3s2)CC1 [T387-0950] |  |  | 80
38 | CN(C)CCNC(=O)C1CCN(c2nc3ccc(-c4cccnc4)nc3s2)CC1 [T387-1019] |  |  | 31
39 | CC1CCN(C(=O)C2CCN(c3nc4ccc(-c5ccncc5)nc4s3)CC2)CC1 [T387-1113] |  |  | 47
40 | CCN(CC)C(=O)C1CCN(C2=Nc3ccc(-c4ccncc4)nc3C2)CC1 [T387-1131] |  |  | 85
41 | C=C(C)C1Cc2cc(C(F)(F)F)ccc2N2CCCCC12 (stereo not shown) [V004-5575] |  | 175 | 
42 | Cc1nc(-c2cccc(C(F)(F)F)c2)c(N)c(N(C)C2CCN(C)CC2)n1 [V030-4109] |  | 255 | 
43 | Cc1nc(-c2cccc(F)c2)c(N)c(N(C)C2CCN(C)CC2)n1 [V030-4128] |  | 210 | 
44 | CCOC(=O)CCc1c(C)c2ccc(OC(=O)C3CCCCC3)c(C)c2oc1=O [Y04-4165] |  |  | 529

Row | SMILES | % activity 20 uM [%] | % activity Max. conc. 100 uM [%] | % Activity [%]
45 | Cc1c(OC(=O)C2CCCCC2)ccc2c3c(c(=O)oc12)CCCC3 [Y040-0748] |  |  | 71
46 | COc1cccc(C(=O)Oc2ccc3c4c(c(=O)oc3c2C)CCCC4)c1 [Y040-0750] |  |  | 33
47 | Cc1c(C)c2ccc(OC(=O)C3CCCCC3)c(C)c2oc1=O [Y040-1862] |  |  | 237
48 | Cc1c(Cc2ccccc2)c(=O)oc2c(C)c(OC(=O)C3CC3)ccc12 [Y040-1980] |  |  | 30
49 | COc1ccc(C(=O)Oc2ccc3c(C)c(Cc4ccccc4)c(=O)oc3c2)cc1 [Y040-2026] |  |  | 140
50 | COc1cc(C(=O)Oc2ccc3c4c(c(=O)oc3c2)CCCC4)cc(OC)c1OC [Y040-2478] |  |  | 95
51 | COC(=O)Cc1c(C)c2ccc(OC(=O)c3cccc(OC)c3)c(C)c2oc1=O [Y040-3572] |  |  | 396
52 | CCOc1ccccc1C(=O)Oc1ccc2c(C)c(CC(=O)OC)c(=O)oc2c1C [Y040-3573] |  |  | 50
53 | C=C1Cc2cc(C)cc(CC(=O)[C@@H](NS(=C)(=C)c3ccc(C)cc3)[C@H](C)CC)c2C2=C1CCC2 [Y040-3625] |  | 113 | 
54 | CCOc1ccccc1C(=O)Oc1ccc2c3c(c(=O)oc2c1)CCCC3 [Y040-4190] |  |  | 168
55 | Cc1ccc(C(=O)Oc2ccc3c4c(c(=O)oc3c2C)CCC4)cc1 [Y040-4193] |  |  | 53
56 | CCCCCCc1c(C)c2ccc(OC(C)=O)c(C)c2oc1=O [Y040-4544] |  |  | 33
57 | CCCCCCc1c(C)c2cc(C)c(OC(=O)c3cccc(OC)c3)cc2oc1=O [Y040-7591] |  |  | 63
58 | Cc1c(Cc2ccccc2)c(=O)oc2c(C)c(OC(=O)C3CCCCC3)ccc12 [Y040-7709] |  |  | 145
59 | Cc1c(Cc2ccccc2)c(=O)oc2c(C)c(OC(=O)c3ccccc3)ccc12 [Y040-7711] |  |  | 41
60 | COc1ccc(C(=O)Oc2ccc3c(C)c(Cc4ccccc4)c(=O)oc3c2C)cc1 [Y040-7713] |  |  | 21
61 | Cc1c(Cc2ccccc2)c(=O)oc2cc(OCc3c(Cl)cccc3Cl)ccc12 [Y040-7747] |  |  | 21
62 | Cc1c(Cc2ccccc2)c(=O)oc2cc(OC(=O)c3ccccc3)ccc12 [Y040-7755] |  |  | 212
63 | Cc1c(Cc2ccccc2)c(=O)oc2cc(OC(=O)C3CCCCC3)ccc12 [Y040-7756] |  |  | 61
64 | COc1ccc(C(=O)Oc2ccc3c4c(c(=O)oc3c2)CCCC4)cc1 [Y040-8182] |  |  | 485
